Source: patent US4985445A, “Cancer cell metastasis inhibitors and novel compounds” (Meiji Seika Kaisha, Ltd., priority 1988, dated 1991)

Tested on: B16 subline of high pulmonary metastatic potential
Experiment: Inhibition of pulmonary metastasis of B16 subline pretreated with compound and injected i.v. into BDF1 mice
Type: in vivo, murine; mouse BDF1
Settings: for Pulmonary Metastasis, Mouse 1 / Pulmonary Metastasis, Mouse 2 / Pulmonary Metastasis, Mouse 3 / Pulmonary Metastasis (Mean ± Standard Deviation): 14 days; for Pulmonary Metastasis (Mean ± Standard Deviation): None 32 ± 3.0; for Pulmonary Metastasis, %: None = 100

OC[C@@H]1[C@@H](O)[C@H](O)[C@@H](O)CN1CCCc1ccccc1 [N-(3-Phenylpropyl)-1-deoxynojirimycin, N-(3-phenylpropyl)-1-deoxynojirimycin]
Inhibition of metastasis to the lungs (in words) (B16 subline, BDF1 mice): shows decrease in the number of colonies
Pulmonary Metastasis, Mouse 1 (Table 3, 30 μg/ml): 9 no.
Pulmonary Metastasis, Mouse 2 (Table 3, 30 μg/ml): 22 no.
Pulmonary Metastasis, Mouse 3 (Table 3, 30 μg/ml): 37 no.
Pulmonary Metastasis (Mean ± Standard Deviation) (Table 3, 30 μg/ml): 22.7 ± 14.0 no.
Pulmonary Metastasis, % (Table 3, 30 μg/ml): 68.8%
Pulmonary Metastasis, Mouse 1 (Table 3, 100 μg/ml): 4 no.
Pulmonary Metastasis, Mouse 2 (Table 3, 100 μg/ml): 4 no.
Pulmonary Metastasis, Mouse 3 (Table 3, 100 μg/ml): 6 no.
Pulmonary Metastasis (Mean ± Standard Deviation) (Table 3, 100 μg/ml): 4.7 ± 1.2 no.
Pulmonary Metastasis, % (Table 3, 100 μg/ml): 14.7%
Pulmonary Metastasis, Mouse 1 (Table 3, 300 μg/ml): 0 no.
Pulmonary Metastasis, Mouse 2 (Table 3, 300 μg/ml): 0 no.
Pulmonary Metastasis, Mouse 3 (Table 3, 300 μg/ml): 3 no.
Pulmonary Metastasis (Mean ± Standard Deviation) (Table 3, 300 μg/ml): 1 ± 1.7 no.
Pulmonary Metastasis, % (Table 3, 300 μg/ml): 3.1%
